Data taken from patent publication US11344025B2, “Organ preconditioning formulation with mitochondrial elongating agents” (MUSC FOUNDATION FOR RESEARCH DEVELOPMENT, priority 2017, dated 2022).
“Also recorded” adds a separate entry of the source. Where two headings read alike, the source gives them in different places.

Tests used:
MCECs = assay: mitoSOX staining of mito ROS after CIT; type: cell-based, mouse; conditions: CIT-induced ROS
Experimental: Hypoxic cold storage and reperfusion injury culture model: A modified cell culture model that simulates the IR process of organ Tx will be used. […] Cells will then be sealed in a hypoxic chamber filled with nitrogen at 4° C. After CIT, cells will undergo simulated reperfusion by removing the preservation solution and reintroducing fresh DMEM containing 10% FBS.

[1] = system: sensitized allogeneic CD8+ T-cells cocultured with MCECs; assay: EC/T cell co-culture: cytokine release by alloreactive CD8 T cells; type: cell-based, mouse; conditions: cold stored (CIT) and treated ECs
From the text: EC/T cell co-culture: Using the genetically modified and pharmacological inhibitors the inventors will dissect the impact of EC mito morphology manipulation on T cell activation/co-stimulation. These studies will focus on MCECs given the availability of reagents and ability to generate alloreactive CD8 T cells as previously published.
Allogenic CD8 T cells will be generated. In brief, C57Bl/6 mice will be inoculated with MCECs i.p. and 3 weeks later spleens will be harvested and CD8 T cells isolated using bead isolation techniques. These MCEC alloreactive CD8 T cells will then be co-cultured with MCECs in the normoxic and CIT models.

focal cardiac ischemia = conditions: non-transplant setting, previous studies, cited from earlier work
[2] = Systemic administration of Mdivi-1, adverse effects; type: in vivo
From the text: The studies proposed will delineate the role of mito morphology alterations in cardiac-Tx. They will also determine how donor BD impacts IM, and identify an optimum drug delivery strategy for reducing acute post-Tx injury through mito shape manipulation. The opposing roles of mito fission and fusion regulate mito morphology and function. A number of key proteins have been identified which control this process (DRP-1, mito fission protein-1 (Fis-1) and mito fission factor (mff), Mfn1/2, and OPA-1). Given the importance of these proteins for the maintenance of cellular respiration, genetic deletion is most often fatal. However, C57Bl/6 homozygous mito fission factor (Mff)-deficient (Mff^gt−/−) mice are available, as are pharmacological promoters of fusion, M1 and Mdivi-1. […] Using these tools, the inventors will dissect the role of fission and fusion in IRI and rejection in the context of organ Tx. The inventors propose three sub Aims. In SA 2.1, the inventors will determine the impact of mito fission inhibition, and thus fusion promotion, through comparing the effects of IRI and AR of recipients receiving hearts from C57Bl/6 wildtype (wt) or C57Bl/6 homozygous mito fission factor (Mff)-deficient (Mff^gt−/−) donors. In SA 2.2 the inventors will explore the therapeutic potential of donor heart pre-treatment with M1, Mdivi-1, and a combination of both. […]

| Compound | mito ROS (mitoSox) (MCECs) | Granzyme B (GrB) production by co-cultured alloreactive CD8 T cells [1] | IFN-gamma production by co-cultured alloreactive CD8 T cells [1] | cardioprotection from focal IRI (focal cardiac ischemia) | cardioprotection from focal IRI (focal cardiac ischemia; listed as Mdivi1) | adverse side effects [2] |
| --- | --- | --- | --- | --- | --- | --- |
| CC(=O)N[C@@H](CS)C(=O)O [NAC, N-Acetyl Cysteine] | completely abrogated ROS | has no impact; also recorded: no significant effect; also recorded: do not decrease Granzyme-B to the extent of DRP-KD | has no impact; also recorded: no significant effect |  |  |  |
| COc1cc(-n2c(S)nc3ccccc3c2=O)c(Cl)cc1Cl [Mdivi-1] |  |  |  | provides protection from IRI; also recorded: promote cardioprotective effects | protect both myocardium and microvasculature | no detectable adverse side effects |
